Laboratory results from PMC12029309, “Synthesis and Antifungal Activity of 1,2,4-Oxadiazole Derivatives” (Molecules, 2025).
≈ marks a conversion by molar mass, not a printed value.

Experiments:
Assay type in all cases: cell-based
B. cinerea = test: Mycelial growth inhibition test in vitro (B. cinerea); conditions: Botrytis cinerea; 50 μg/mL, mean ± SD of three replicates; read-out: The Inhibition Rate (%) B. cinerea
Experimental: (§1) The antifungal activity of the target compound was tested by the mycelial growth inhibition rate method. The compounds were detected at a concentration of 50 μg/mL, and carbendazim was used as the positive control. The antifungal activity was carried out according to literature reports. After drilling the mycelium (3 mm), it was inoculated into the PDA medium containing compounds, and the Petri dish was put into the incubator at 25 °C for 12-48 h; then, the colony diameter was measured with 50 index vernier caliper by the cross method, and the data were recorded. […] • A: The average diameter of the blank medium colony. • B: Diameter of mushroom cake (3 mm). • C: The average diameter of the colonies in the medium containing compound.

E. turcicum = test: Mycelial growth inhibition test in vitro (E. turcicum); conditions: Exserohilum turcicum; 50 μg/mL, mean ± SD of three replicates; read-out: The Inhibition Rate (%) E. turcicum
R. solani = test: microbe, parasite or virus in culture; conditions: Rhizoctonia solani, read-out: The Inhibition Rate (%) R. solani
C. capsica = test: Mycelial growth inhibition test in vitro (C. capsica); conditions: Colletotrichum; 50 μg/mL, mean ± SD of three replicates; read-out: The Inhibition Rate (%) C. capsica
Experimental: as §1, with “compound. […] The PDA medium containing different concentrations of the compound was prepared by the two-fold dilution method, the final concentration of the compound in the medium was adjusted to 0-100.00 μg/mL, and three parallel samples were set for each concentration. […] The toxicity regression equation of the tested compound was obtained, taking the logarithm of compound concentration (lgc) as the independent variable (x) and the probability value of inhibition rate as the dependent variable (y), and the EC50 value of each tested compound was calculated.” for “compound.”

F. graminearum = test: microbe, parasite or virus in culture; conditions: Fusarium graminearum; for inhibition at 50 µg/mL: read-out: The Inhibition Rate (%) F. graminearum
MCF-7 cell line = test: MTT cytotoxicity evaluation on MCF-7 cells; conditions: 100 μM, 24 h
Experimental: (§2) Cells were incubated at 37 °C in an incubator with 5% CO2. Cell viability was determined using the MTT assay. Briefly, MCF-7 cell lines were seeded at 5000–8000 cells/well in 96-well plates. […] Following a continuous 24 h of incubation, the culture medium was replaced by 90 μL fresh culture medium, and 10 μL MTT solution was added.

[1] = MTT cytotoxicity evaluation on MCF-7 cells; conditions: human, range 0~100 μM
Experimental: as §2

SMILES | inhibition at 50 µg/mL (B. cinerea) [%] | inhibition at 50 µg/mL (E. turcicum) [%] | inhibition at 50 µg/mL (R. solani) [%] | inhibition at 50 µg/mL (C. capsica) [%] | inhibition at 50 µg/mL (F. graminearum) [%] | cell survival rate of MCF-7 cells (MCF-7 cell line) | IC50 at 24 h [1] [µM] | EC50 (F. graminearum; read-out: EC50 (μg/mL) F. graminearum) [µg/mL]
COc1ccc(-c2noc(-c3ccc(C(C)(C)C)cc3)n2)cc1 [Compound 4l, 5-(4-(tert-Butyl)phenyl)-3-(4-methoxyphenyl)-1,2,4-oxadiazole] | < 10 | 24.2 ± 3.77 | < 10 | < 10 | 27.6 ± 1.78 | significant cell proliferation |  | 
Clc1ccc(/C=C/c2nc(-c3ccccc3)no2)cc1 [Compound 5c, (E)-5-(4-Chlorostyryl)-3-phenyl-1,2,4-oxadiazole] | < 10 | < 10 | < 10 |  | < 10 | significant cell proliferation |  | 
Clc1ccc(-c2nc(-c3ccccc3)no2)cc1 [Compound 4a, 5-(4-Chlorophenyl)-3-phenyl-1,2,4-oxadiazole] | < 10 | 17.5 ± 2.68 | < 10 |  | 19.1 ± 7.15 |  |  | 
COc1ccc(-c2noc(-c3cccc(O)c3)n2)cc1OC [Compound 4o, 3-(3-(3,4-Dimethoxyphenyl)-1,2,4-oxadiazol-5-yl)phenol] | < 10 | 28.1 ± 1.65 | 24.4 ± 1.65 | 20.8 ± 0.59 | 55.1 ± 2.99 |  |  | 
FC(F)(F)c1ccc(-c2nc(-c3ccccc3)no2)cc1 [Compound 4h, 3-Phenyl-5-(4-(trifluoromethyl)phenyl)-1,2,4-oxadiazole] | < 10 | < 10 | < 10 | < 10 | 29 ± 8.54 |  |  | 
COc1ccc(-c2noc(-c3ccc(Cl)cc3)n2)cc1 [Compound 4j, 5-(4-Chlorophenyl)-3-(4-methoxyphenyl)-1,2,4-oxadiazole] | < 10 | < 10 | < 10 | < 10 | < 10 |  |  | 
COc1ccc(-c2noc(-c3ccc(C(C)(C)C)cc3)n2)cc1OC [Compound 4n, 5-(4-(tert-Butyl)phenyl)-3-(3,4-dimethoxyphenyl)-1,2,4-oxadiazole] | < 10 | 29.8 ± 1.26 | < 10 | < 10 | < 10 |  | ≥ 100 | 
COc1ccc(-c2noc(-c3ccc(Cl)cc3)n2)cc1OC [Compound 4m, 5-(4-Chlorophenyl)-3-(3,4-dimethoxyphenyl)-1,2,4-oxadiazole] |  | 15.2 ± 0.77 | 11.7 ± 5.11 |  | < 10 |  |  | 
COc1ccc(-c2noc(-c3cc(O)cc(O)c3)n2)cc1OC [Compound 4p, 5-(3-(3,4-Dimethoxyphenyl)-1,2,4-oxadiazol-5-yl)benzene-1,3-diol] | < 10 | 11.2 ± 1.91 | < 10 | 0 | < 10 | significant cell proliferation |  | 
COc1cc(-c2noc(-c3ccc(C(C)(C)C)cc3)n2)cc(OC)c1OC [Compound 4u, 5-(4-(tert-Butyl)phenyl)-3-(3,4,5-trimethoxyphenyl)-1,2,4-oxadiazole] | < 10 | < 10 | < 10 | < 10 | < 10 |  | ≥ 100 | 
COc1cc(-c2noc(-c3cccc(O)c3)n2)cc(OC)c1OC [Compound 4v, 3-(3-(3,4,5-Trimethoxyphenyl)-1,2,4-oxadiazol-5-yl) phenol] | < 10 | 15.5 ± 3.53 | < 10 | < 10 | 26.1 ± 9.47 |  |  | 
O=[N+]([O-])c1ccc(-c2nc(-c3ccccc3)no2)cc1 [Compound 4i, 5-(4-Nitrophenyl)-3-phenyl-1,2,4-oxadiazole] | < 10 | < 10 | < 10 |  | < 10 | significant cell proliferation |  | 
Oc1cc(O)cc(-c2nc(-c3ccccc3)no2)c1 [Compound 4e, 5-(3-Phenyl-1,2,4-oxadiazol-5-yl) benzene-1,3-diol] | < 10 | 26.5 ± 3.09 | 16.6 ± 1.47 | 18.8 ± 3.1 | 30.1 ± 4.51 |  | ≥ 100 | 
COc1cc(/C=C/c2nc(-c3ccccc3)no2)cc(OC)c1OC [Compound 5b, (E)-3-Phenyl-5-(3,4,5-trimethoxystyryl)-1,2,4-oxadiazole] | 30.2 ± 6.4 | 31.8 ± 1.44 | 21.2 ± 2.78 | 20.6 ± 4.48 | 36.1 ± 1.67 |  | ≥ 100 | 
COc1ccc(-c2nc(-c3cc(OC)c(OC)c(OC)c3)no2)cc1OC [Compound 4t, 5-(3,4-Dimethoxyphenyl)-3-(3,4,5-trimethoxyphenyl)-1,2,4-oxadiazole] | < 10 | < 10 | < 10 |  | 28.3 ± 2.19 | significant cell proliferation |  | 
COc1ccc(-c2noc(/C=C/c3ccccc3)n2)cc1 [Compound 5d, (E)-3-(4-Methoxyphenyl)-5-styryl-1,2,4-oxadiazole] | 21.7 ± 6.82 | 19.2 ± 2.39 | < 10 |  | 19 ± 7.4 |  |  | 
Oc1cc(-c2nc(-c3ccccc3)no2)cc(O)c1O [Compound 4g, 5-(3-Phenyl-1,2,4-oxadiazol-5-yl) benzene-1,2,3-triol] | < 10 | 38.7 ± 1 | 39.9 ± 3.44 | 47.6 ± 1.05 | 56.9 ± 6.74 |  |  | 80.5 (≈ 298 µM)
COc1ccc(-c2nc(-c3ccc(OC)c(OC)c3)no2)cc1 [Compound 4w, 3-(3,4-Dimethoxyphenyl)-5-(4-methoxyphenyl)-1,2,4-oxadiazole] | < 10 | < 10 | < 10 | < 10 | < 10 |  |  | 
COc1ccc(-c2noc(-c3ccc(OC)c(OC)c3)n2)cc1 [Compound 4k, 5-(3,4-Dimethoxyphenyl)-3-(4-methoxyphenyl)-1,2,4-oxadiazole] | < 10 | < 10 | 22.6 ± 8.85 | < 10 | 21.7 ± 2.53 |  |  | 
COc1ccc(-c2nc(-c3ccccc3)no2)cc1OC [Compound 4b, 5-(3,4-Dimethoxyphenyl)-3-phenyl-1,2,4-oxadiazole] | < 10 | 60.4 ± 1.68 | 18.7 ± 5.82 | < 10 | 23.8 ± 7.22 |  |  | 
COc1cc(-c2noc(-c3ccc(Cl)cc3)n2)cc(OC)c1OC [Compound 4s, 5-(4-Chlorophenyl)-3-(3,4,5-trimethoxyphenyl)-1,2,4-oxadiazole] | < 10 | < 10 | < 10 | < 10 | < 10 |  |  | 
C(=C\c1nc(-c2ccccc2)no1)/c1ccccc1 [Compound 5a, (E)-3-Phenyl-5-styryl-1,2,4-oxadiazole] | < 10 | 21.1 ± 3.85 | 14.5 ± 6.32 |  | < 10 |  |  | 
CC(C)(C)c1ccc(-c2nc(-c3ccccc3)no2)cc1 [Compound 4c, 5-(4-(tert-Butyl)phenyl)-3-phenyl-1,2,4-oxadiazole] | < 10 | 30.1 ± 1.95 | 10.7 ± 3.54 | < 10 | 33.5 ± 3.88 |  |  | 
Oc1cccc(-c2nc(-c3ccccc3)no2)c1 [Compound 4d, 3-(3-Phenyl-1,2,4-oxadiazol-5-yl) phenol] | 36.8 ± 9.53 | 46.1 ± 0.74 | 18.6 ± 2.71 | 22.3 ± 2.97 | 40.2 ± 1.5 |  | ≥ 100 | 
